The source of these data is patent US20130028955A1, “SUSTAINED RELEASE ORAL MATRIX AND METHODS OF MAKING THEREOF” (priority 2011, published 2013).

A short description of the data set: Dissolution, USP basket apparatus 1, simulated intestinal fluid pH 6.8. In kind it is physicochemical. The conditions noted are these: for drug release 0.5 h / drug release 1 h / drug release 2 h / drug release 4 h / drug release 8 h / drug release 12 h / drug release 24 h: Table 7, Example VII combination tablet; for drug release 0 h: Table 7, Example VII tablet: 20% silicone PSA, 8.7% tramadol HCl, 71.7% acetaminophen. How it is done:
The release rate of these formulations were carried out using USP dissolution basket apparatus 1 (Vankel, Inc) using about 100 rpm stirring speed at about 37 C in about 900 ml of the dissolution medium. The dissolution medium used was simulated intestinal fluid with a pH of about 6.8. At predetermined time intervals, 1 ml of sample was withdrawn and was analyzed to determine acetaminophen concentration. Concentration of acetaminophen in the dissolution medium was determined using a HPLC method. A C8 column was used using mobile phase of 65% methanol and 35% water. Flow rate was 1 ml/min and the UV detection wavelength was 254 nm. The results are reported as average of six tablets. […] Total weight of each tablet was 500 mg. The diameters of the tablets were 13 mm.

Where a name gives a salt, the structure may show the parent alone.

As to `CC(=O)Nc1ccc(O)cc1` [APAP, acetaminophen], the “drug release 0.5 h” value was 13.5, the “drug release 1 h” value was 22.6, the “drug release 2 h” value is 31.9 and the “drug release 4 h” value is recorded as 44.8. For the same compound, the “drug release 8 h” value is 61.1, the “drug release 12 h” value was 74.3, the “drug release 24 h” value is 86.0 and the “drug release 0 h” value is listed as 0.0.

As for `COc1cccc(C2(O)CCCCC2CN(C)C)c1` (stereo not shown) [Tramadol HCl, Tramadol hydrochloride], the “drug release 0.5 h” value is given as 15.8, the “drug release 1 h” value was 23.2, the “drug release 2 h” value is listed as 32.1 and the “drug release 4 h” value is reported as 43.4. Also, the “drug release 8 h” value is reported as 56.8, the “drug release 12 h” value is on record as 68.3, the “drug release 24 h” value is reported as 89.4 and the “drug release 0 h” value is 0.0.
